The source of these data is patent US20210163896A1, “METHOD FOR PRODUCING ANIMAL CELL CONTAINING DNA OF INTEREST USING MICRONUCLEATE CELL FUSION METHOD” (NATIONAL UNIVERSITY CORPORATION TOTTORI UNIVERSITY, priority 2018, published 2021).

Assay [1] relates to Human immortalized mesenchymal stem cells (hiMSC). Put plainly: Micronucleation induction in human immortalized mesenchymal stem cells, DAPI staining. Type of assay: cell-based. The conditions noted are these: 48 hours. The protocol: Human immortalized mesenchymal stem cells (hiMSC: provided by Dr. Toguchida, Kyoto University) were seeded in individual wells of a 6-well plate at a density of 5×10^5 cells per well and cultured at 37° C. in the condition of 5% CO2 for 24 hours. For the micro nucleation induction experiment, 26 conditions in total were designed based on treatments with colcemid (0.05 μg/mL, 0.1 μg/mL, 0.2 μg/mL), MAS (0.1 μg/mL, 0.2 μg/mL, 0.4 μg/mL) and paclitaxel (0.8 nM, 4 nM, 20 nM, 100 nM, 400 nM), with the addition of reversine (no addition, 500 nM, 1000 nM, 1500 nM) during the treatments, and the cells were cultured at 37° C. in the condition of 5% CO2 for 48 hours.
In order to observe living cells after micronucleation induction, the cells were fixed with 4% paraformaldehyde and stained with DAPI (concentration: 1 μg/mL) for 15 minutes. The fixed cells were observed by fluorescence microscopy and the micronuclear formation induction rates were compared. Whether or not micronuclei were formed in individual cells was observed and the results are shown in a figure (FIG. 2).

In another assay the test system is Human iPS cells. Put plainly: Micronucleation induction in human iPS cells, microscopic observation. The format is cell-based. Conditions: 48 hours, MAS 0.2 μg/mL compared to colcemid 0.25 μg/mL, paclitaxel 20-400 nM, reversine 0-1500 nM added. Here is the method:
Human iPS cells were seeded to a 6-well plate previously coated with 0.5 μg/cm^2 Laminin™-511 (Nippi. Inc.) at a density of 5×10^5 cells per well, and 10 μM Y-27632 was added. The human iPS cells were incubated at 37° C. in the condition of 5% CO2 for 24 hours. For a micronucleation induction experiment, 22 conditions in total were designed based on treatments with colcemid 0.25 μg/mL, MAS 0.2 μg/mL or paclitaxel (20 nM, 40 nM, 60 nM, 100 nM, 400 nM) with the addition of reversine (no addition, 500 nM, 1000 nM, 1500 nM) during the treatments, and the cells were cultured at 37° C. in the condition of 5% CO2 for 48 hours.
After micronucleation induction, the micronucleation induction rates were compared based on microscopic observation.

For the next assay, the system named is CHO MHG#4a cells. In words: Micronucleation induction in CHO cells, fluorescence-microscopic observation. Type of assay: cell-based, Chinese hamster. The conditions noted are these: 72 hours, paclitaxel 0-1920 nM, reversine 0-12288 nM. The protocol: Ninety six conditions, which were designed by combinations of paclitaxel (0 nM, 96 nM, 192 nM, 384 nM, 768 nM, 1152 nM, 1536 nM, 1920 nM) and reversine (0 nM, 192 nM, 384 nM, 768 nM, 1536 nM, 3072 nM, 4608 nM, 6144 nM, 7680 nM, 9216 nM, 10752 nM, 12288 nM), were assigned to the wells. Culture was carried out at 37° C. in the condition of 5% CO2 for 72 hours.
After micronucleation induction, the micronucleation induction rates were compared based on observation by fluorescence microscopy.

As for `CC(=O)O[C@H]1C(=O)[C@@]2(C)[C@H]([C@H](OC(=O)c3ccccc3)[C@]3(O)C[C@H](OC(=O)[C@H](O)[C@@H](NC(=O)c4ccccc4)c4ccccc4)C(C)=C1C3(C)C)[C@]1(OC(C)=O)CO[C@@H]1C[C@@H]2O` [paclitaxel], in assay [1], the “micronucleation induction, usefulness of agent” value is given as “effective”. Further, in the assay with Human iPS cells, the micronucleation induction rate result is “micronucleation rate increases in a concentration dependent manner”. Further, in the assay on CHO MHG#4a cells, the micronucleation rate entry is “micronucleation rate increases in a concentration dependent manner”.

Turning to `c1nc2nc(Nc3ccc(N4CCOCC4)cc3)nc(NC3CCCCC3)c2[nH]1` [reversine], the “micronucleation induction, usefulness of agent” value in assay [1] is “useful”. Further, in the assay on Human iPS cells, the micronucleation induction rate entry is given as “useful”. For the same molecule, in the assay with CHO MHG#4a cells, the micronucleation rate entry is “micronucleation rate increases in a concentration dependent manner”.
